Measured values from ChEMBL document CHEMBL3120091, “Microwave-assisted synthesis and myorelaxant activity of 9-indolyl-1,8-acridinedione derivatives” (2014).
Calls of active or inactive are those of the source. The calls are words filed in the database; no cut-off is given here.

Experiments:
Stomach [1] = test: Myorelaxant activity in New Zealand white rabbit gastric fundus smooth muscle assessed as relaxation of noradrenaline-induced contraction in presence of L-NAME; format: functional, tissue-based; details: Oryctolagus cuniculus
Stomach [2] = test: Myorelaxant activity in New Zealand white rabbit gastric fundus smooth muscle assessed as relaxation of noradrenaline-induced contraction in presence of propranolol; format: functional, tissue-based; details: Oryctolagus cuniculus
Stomach [3] = test: Myorelaxant activity in New Zealand white rabbit gastric fundus smooth muscle assessed as relaxation of noradrenaline-induced contraction in presence of indomethacin; format: functional, tissue-based; details: Oryctolagus cuniculus
Stomach [4] = test: Myorelaxant activity in New Zealand white rabbit gastric fundus smooth muscle assessed as relaxation of noradrenaline-induced contraction; format: functional
Stomach [5] = test: Myorelaxant activity in New Zealand white rabbit gastric fundus smooth muscle assessed as relaxation of noradrenaline-induced contraction at 3 x 10^-4 M relative to control; format: functional; details: Oryctolagus cuniculus
Stomach [6] = test: Myorelaxant activity in New Zealand white rabbit gastric fundus smooth muscle assessed as relaxation of noradrenaline-induced contraction in presence of glibenclamide; format: functional, tissue-based; details: Oryctolagus cuniculus
Stomach [7] = test: Myorelaxant activity in New Zealand white rabbit gastric fundus smooth muscle assessed as relaxation of noradrenaline-induced contraction in presence of tetraethylammonium chloride; format: functional, tissue-based; details: Oryctolagus cuniculus

| SMILES | Activity (Stomach [1]) | Activity (Stomach [2]) | Activity (Stomach [3]) | pD2 (Stomach [4]; Oryctolagus cuniculus) | Emax (Stomach [5]) | Activity (Stomach [6]) | Activity (Stomach [7]) | pD2 (Stomach [4]) | Emax at 300 µM (Stomach [5]) [%] |
| --- | --- | --- | --- | --- | --- | --- | --- | --- | --- |
| Cn1cc(C2C3=C(CCCC3=O)NC3=C2C(=O)CCC3)c2ccccc21 | Active | Active | Active | inactive | inactive | – | – | – | – |
| O=C1CCCC2=C1C(c1c[nH]c3ccc(Br)cc13)C1=C(CCCC1=O)N2 | Active | Active | Active | inactive | inactive | – | – | – | – |
| CC1(C)CC(=O)C2=C(C1)NC1=C(C(=O)CC(C)(C)C1)C2c1c[nH]c2ccc(Br)cc12 | – | – | – | – | – | Active | Active | 3.85 | 71.5 |
| CC1(C)CC(=O)C2=C(C1)NC1=C(C(=O)CC(C)(C)C1)C2c1c[nH]c2cc(Br)ccc12 | – | – | – | – | – | Active | Active | 4.25 | 52.7 |
| CC1(C)CCC2=C(C1=O)C(c1c[nH]c3ccc(Br)cc13)C1=C(CCC(C)(C)C1=O)N2 | – | – | – | – | – | Active | Active | 4.46 | 17.5 |
| O=C1CCCC2=C1C(c1c[nH]c3cc(Br)ccc13)C1=C(CCCC1=O)N2 | Active | Active | Active | inactive | inactive | – | – | – | – |
| Cn1c(C2C3=C(CC(C)(C)CC3=O)NC3=C2C(=O)CC(C)(C)C3)cc2ccccc21 | – | – | – | – | – | Active | Active | 4.1 | 34 |
| Cn1c(C2C3=C(CCC(C)(C)C3=O)NC3=C2C(=O)C(C)(C)CC3)cc2ccccc21 | – | – | – | – | – | Active | Active | 4.6 | 11.6 |
| Cn1cc(C2C3=C(CCC(C)(C)C3=O)NC3=C2C(=O)C(C)(C)CC3)c2ccccc21 | Active | Active | Active | inactive | inactive | – | – | – | – |
| CC(N/C(=N\C#N)Nc1ccncc1)C(C)(C)C (stereo not given) [PINACIDIL ANHYDROUS] | – | – | – | – | – | – | – | 3.9 | 63.8 |
| Cn1cc(C2C3=C(CC(C)(C)CC3=O)NC3=C2C(=O)CC(C)(C)C3)c2ccccc21 | – | – | – | – | – | Active | Active | 4.28 | 28.6 |
| CC1(C)CCC2=C(C1=O)C(c1c[nH]c3cc(Br)ccc13)C1=C(CCC(C)(C)C1=O)N2 | – | – | – | – | – | Active | Active | 4.54 | 12 |
| Cn1c(C2C3=C(CCCC3=O)NC3=C2C(=O)CCC3)cc2ccccc21 | Active | Active | Active | inactive | inactive | – | – | – | – |
